Laboratory results as given in paper PMC11219871, “Epigenetic-based differentiation therapy for Acute Myeloid Leukemia” (Nature Communications, 2024).
“And” between values parts separate entries of the source, which are not always exact repeats. Identical values can stand only once. Like-named read-outs stand apart in the source and are kept apart here.

Experiments:
Format in all cases: cell-based, human
HL-60 [1] = assay: Cell proliferation assay: GI50; details: read-out: GI50
Method: (§1) Cell proliferation was analyzed using the CellTiter 96 Aqueous One Solution Cell Proliferation Assay (Promega, Madison, WI). This is a colorimetric method for determining the number of viable cells in proliferation. For the assay, suspension cells were cultured in triplicate at a density of 1 × 10^6 cells/mL in 96-well plates (100.000 cells/well, 100 µL/well), using only the 60 inner wells to avoid any border effects. […] Then, the cells were incubated with 100 μL/well of medium and 20 μL/well of CellTiter 96 Aqueous One Solution reagent for 1–3 h. […] The background absorbance was measured in wells with only cell line medium and solution reagent. First, the average of the absorbance from the control wells was subtracted from all other absorbance values. Data were calculated as the percentage of total absorbance of treated cells/absorbance of non-treated cells. The GI50 values of the different compounds were determined using non-linear regression plots made with GraphPad Prism v5 software.

ML-2 [2] = assay: Cell proliferation assay: GI50
Method: as §1

MOLM-13 [3] = assay: Cell proliferation assay: GI50
Method: as §1

MV4-11 [4] = assay: Cell proliferation assay: GI50
Method: as §1

HL-60 [5] = assay: Differentiation-apoptosis assay, CD11b / annexin-V / Sytox Green / myeloid markers flow cytometry; set-up: CD11b levels: unit not given here; details: HL-60 treated daily for 48 h; replicates (Fig 6D)
Method: Next, the cells were washed twice with phosphate-buffered saline (PBS) and resuspended in 1X Binding Buffer at a concentration of 1 × 10^6 cells/mL. […] Finally, after the addition of 400 µL of 1X Binding Buffer to each tube, samples were collected on a BD FACSCanto flow cytometer (Becton Dickinson, San Jose, CA, USA) and analyzed using FlowJo software.
Then, 1 million cells (volume of 250 µL) were added and incubated for 30 min at room temperature in darkness. After 10 min incubation at room temperature with 2 mL of FACSLysing 1X, cells were centrifuged at 540 g for 5 min and washed twice with FACSBuffer. Finally, after centrifugation at 540 g for 5 min cells were resuspended in FACSBuffer.

ML-2 [6] = assay: as above; set-up: CD11b levels: unit not given here; details: ML-2 treated daily for 48 h; replicates (Fig 6E)
Method: (§2) Next, the cells were washed twice with phosphate-buffered saline (PBS) and resuspended in 1X Binding Buffer at a concentration of 1 × 10^6 cells/mL. An 8-µL aliquot of APC-CD11b (BD Pharmingen, Franklin Lakes, NJ, USA) and 1 µL of FITC annexin-V (AV) (BD Pharmingen, Franklin Lakes, NJ, USA) antibodies were added and incubated for 15 min at room temperature in the dark. Finally, after the addition of 400 µL of 1X Binding Buffer to each tube, samples were collected on a BD FACSCanto flow cytometer (Becton Dickinson, San Jose, CA, USA) and analyzed using FlowJo software.
(§3) For the rest of experiments, the mix of antibodies (2 µL of BV786-CD13, Cat No, 744748 BD; 1 µL of diluted 1:10 antibody of PB-HLADR, Cat No 307633, Biolegend; 5 µL of APCH7-CD14, Cat No 641394, BD) was added to 10 µL of Brilliant Stain Buffer Plus (Becton Dickinson, San Jose, CA, USA). Then, 1 million cells (volume of 250 µL) were added and incubated for 30 min at room temperature in darkness. After 10 min incubation at room temperature with 2 mL of FACSLysing 1X, cells were centrifuged at 540 g for 5 min and washed twice with FACSBuffer. Finally, after centrifugation at 540 g for 5 min cells were resuspended in FACSBuffer.

MOLM-13 [7] = assay: as above; set-up: CD11b levels: unit not given here; details: MOLM-13, daily treatment for 48 h, replicates 1-3 (Suppl. Fig. 9A)
Method: as §2, §3

MV4-11 [8] = assay: as above; set-up: CD11b levels: unit not given here; details: MV4-11, daily treatment for 48 h, replicates 1-3 (Suppl. Fig. 9A)
Method: as §2, §3

HL-60 [9] = assay: q-RT-PCR of MYC, CDKN2A, CDKN1A, GATA2, TAL1, CEBPA, SPI1; details: HL-60 treated daily for 48 h; replicates (Fig 6F)
Method: (§4) RNA was extracted with TRIzol Reagent (Invitrogen) according to the manufacturer’s instructions. First, cDNA was synthesized from 1 µg of total RNA using the PrimeScript RT reagent Kit (Perfect Real Time) (Cat No RR037A, TaKaRa) following the manufacturer’s instructions. The quality of cDNA was checked by a multiplex PCR that amplifies PBGD, ABL, BCR and β2-MG genes. […] The following program conditions were used for the q-PCR: 50 °C for 2 min, 95 °C for 60 s following by 45 cycles at 95 °C for 15 s and 60 °C for 60 s; melting program, one cycle at 95 °C for 15 s, 40 °C for 60 s, and 95 °C for 15 s. The relative expression of each gene was quantified by the […] method using the gene GUS as an endogenous control. The sequence of primers used can be found in Supplementary Table 10.

ML-2 [10] = assay: as above; details: ML-2 treated daily for 48 h; replicates (Fig 6G)
Method: as §4

MOLM-13 [11] = assay: as above; details: MOLM-13, daily treatment for 48 h, replicates 1-3
Method: as §4

MV4-11 [12] = assay: as above; details: MV4-11, daily treatment for 48 h, replicates 1-3
Method: as §4

For `Cc1sc2c(c1C)C(c1ccc(Cl)cc1)=N[C@@H](CC(=O)OC(C)(C)C)c1nnc(C)n1-2` [JQ1, reference compound], the GI50 (HL-60 [1]; HL-60, 48 h) was > 10 µM, the GI50 (HL-60 [1]; HL-60, replicates 1-3, µM for the other inhibitors) was > 10 µM and the GI50 (ML-2 [2]; ML-2, 48 h) was > 10 µM. The GI50 (ML-2 [2]; ML-2, replicates 1-3, µM for the other inhibitors) was > 10 µM, the GI50 (MOLM-13 [3]; MOLM-13, 48 h) was > 10 µM and the GI50 (MOLM-13 [3]; MOLM-13, replicates 1-3, µM for the other inhibitors) was > 10 µM. For the same compound, the GI50 (MV4-11 [4]; MV4-11, 48 h) was > 10 µM, the GI50 (MV4-11 [4]; MV4-11, replicates 1-3, µM for the other inhibitors) was > 10 µM and the CD11b levels (HL-60 [5]) was 14.4 and 10.4 and 18.9. The CD11b levels (ML-2 [6]) was 12.1 and 9.5 and 15.4, the CD11b levels (MOLM-13 [7]) was 22.1 and 20.7 and 18.1 and the CD11b levels (MV4-11 [8]) was 12.1 and 10.6 and 16.7. For the same compound, the “q-PCR of CEBPA” value (HL-60 [9]) was -0.3248 log10 (2-ΔΔCt) and -0.277 log10 (2-ΔΔCt) and -0.3773 log10 (2-ΔΔCt), the “q-PCR of GATA2” value (HL-60 [9]) was -0.4169 log10 (2-ΔΔCt) and -0.4604 log10 (2-ΔΔCt) and -0.5063 log10 (2-ΔΔCt) and the “q-PCR of MYC” value (HL-60 [9]) was -1.0533 log10 (2-ΔΔCt) and -1.072 log10 (2-ΔΔCt) and -1.203 log10 (2-ΔΔCt). The “q-PCR of SPI1” value (HL-60 [9]) was 0.1686 log10 (2-ΔΔCt) and 0.1558 log10 (2-ΔΔCt) and 0.1908 log10 (2-ΔΔCt), the “q-PCR of TAL1” value (HL-60 [9]) was 0.3073 log10 (2-ΔΔCt) and the “q-PCR of CEBPA” value (ML-2 [10]) was 0.003145 log10 (2-ΔΔCt) and -0.05186 log10 (2-ΔΔCt) and 0.00217 log10 (2-ΔΔCt). The “q-PCR of GATA2” value (ML-2 [10]) was -0.7948 log10 (2-ΔΔCt) and -0.4733 log10 (2-ΔΔCt) and -0.5146 log10 (2-ΔΔCt), the “q-PCR of MYC” value (ML-2 [10]) was -1.0744 log10 (2-ΔΔCt) and -1.048 log10 (2-ΔΔCt) and -1.0236 log10 (2-ΔΔCt) and the “q-PCR of SPI1” value (ML-2 [10]) was -0.3978 log10 (2-ΔΔCt) and -0.4936 log10 (2-ΔΔCt) and -0.3253 log10 (2-ΔΔCt). The “q-PCR of TAL1” value (ML-2 [10]) was -0.9571 log10 (2-ΔΔCt) and -0.8702 log10 (2-ΔΔCt) and -0.7161 log10 (2-ΔΔCt), the “q-PCR of CEBPA, log10 (2-ΔΔCt)” value (MOLM-13 [11]) was -0.258 and -0.1482 and -0.3669 and the “q-PCR of GATA2, log10 (2-ΔΔCt)” value (MOLM-13 [11]) was -0.2598 and -0.4259 and -0.3898. The “q-PCR of MYC, log10 (2-ΔΔCt)” value (MOLM-13 [11]) was -0.7137 and -0.6985 and -0.8216, the “q-PCR of SPI1, log10 (2-ΔΔCt)” value (MOLM-13 [11]) was -0.9325 and -0.8224 and -0.9326 and the “q-PCR of TAL1, log10 (2-ΔΔCt)” value (MOLM-13 [11]) was -0.4726 and -0.5813 and -0.6816. For the same compound, the “q-PCR of CEBPA, log10 (2-ΔΔCt)” value (MV4-11 [12]) was 0.0684 and 0.023 and -0.05782, the “q-PCR of GATA2, log10 (2-ΔΔCt)” value (MV4-11 [12]) was -0.3858 and -0.3755 and -0.4115 and the “q-PCR of MYC, log10 (2-ΔΔCt)” value (MV4-11 [12]) was -0.6192 and -0.5693 and -0.4576. The “q-PCR of SPI1, log10 (2-ΔΔCt)” value (MV4-11 [12]) was -0.1789 and -0.2041 and -0.25 and the “q-PCR of TAL1, log10 (2-ΔΔCt)” value (MV4-11 [12]) was -1.126 and -0.6585 and -1.208.
